In article PMC6872521, “An in silico—in vitro Pipeline Identifying an HLA-A^*02:01^+ KRAS G12V^+ Spliced Epitope Candidate for a Broad Tumor-Immune Response in Cancer Patients” (Frontiers in Immunology, 2019):

Key:
[1] = system: PBMCs of pancreatic adenocarcinoma patients; conditions: cited from earlier work
[2] = system: TAPs (transporters associated with antigen processing); experiment: TAP assay: competition with a fluorescent reference peptide for TAP-dependent translocation into microsomes; type: biochemical; conditions: competition with fluorescent tracer peptide; microsomes from LCL721 cells; 10 mM ATP mixture; 20 min at 37°C; fluorescence read-out; signal without ATP subtracted; result in words (EC50 values only in Figure 6B)
Procedure: The transport efficiency of target peptides (Supplementary Table 2) into the ER lumen mediated by TAPs was carried out as previously described ([29]) although some modifications were introduced. These include the use of a fluorescent peptide tracer and the use of microsomes rather than Streptolysin O permeabilized cells. Briefly, peptides were dissolved in DMSO and different concentrations were distributed in a final volume of 10 μl DMSO. At the same time, a mixture of 10 mM ATP, 100 mM Tris-HCl pH7.5 and 5 mM MgCl2 and fluorescent tracer peptide was prepared. 60 μl of this mixture was added to the 10 μl competing peptide mixture to a final volume of 70 μl. This was prewarmed to 37°C and 30 μl of pre-warmed microsomes were added. Microsomes were derived from LCL721 cells, as previously described ([29]).
The mixture was incubated for 20 min at 37°C followed by cell lysis with lysis mixture (0.5% TX100, 5 mM MgCl2 in 100 mM Tris-HCl pH7.5) at 4°C. After at least 30 min incubation at 4°C, DNA was pelleted and the supernatant transferred to a new vial including ConA-beads. After at least 30 min incubation on ice, cells were washed four times with lysis mixture and the last time with 100 mM Tris-HCl pH7.5 before transfer to 96 wells plates (Corning) followed by fluorescence measurements in a plate reader. To detect background signals, a sample without competing peptide and ATP was included and fully performed as described above. This signal was subtracted from the detected signal.
To quantify the efficiency of peptide transport into the ER lumen by TAP, we measured the competition between the target peptides and a fluorescent reference peptide for TAP-dependent translocation into free microsomes.

HLA-A*02:01 complex = HLA-A*02:01 complex (Homo sapiens, UniProt P04439, D140Y/D185E/D98H/E176V/E277Q/G131W/G231S/I119V/I121R/I166T/I218V/L300P/L318F/N151K/N90K/P208A/P217A/Q86G/Q94H/R138H/R169H/T345S); experiment: HLA-A*02:01-peptide binding affinity measured with purified HLA-I molecules; conditions: cell-free system, values only in Figure 6C
Procedure: The binding affinity between theoretical spliced and non-spliced peptides and HLA-A^*02:01 was predicted using the NetMHCPan 3.0 algorithm ([30]). […] The binding affinity between the synthetic peptides and HLA-A^*02:01 complexes was measured using purified HLA-I molecules, as described elsewhere ([10]).
Once a peptide arrives in the ER lumen, its binding affinity to the specific HLA-I molecule determines whether it will ultimately be presented. Therefore, we measured the binding affinity of the same six peptides previously tested in the TAP assay and the HLA-A^*02:01 complex in a cell-free system utilizing purified HLA-I molecules.

[3] = system: Transduced human CD8+ T cells; conditions: TCRs isolated from humanized ABabDII mice, transduced into human PBMCs; cited from earlier work
Text: Our pipeline identifies epitope candidates which shall further be validated by isolating specific CTL clones and their TCRs and using them to confirm that the epitope candidates are produced in cellulo and eventually in vivo. There are several strategies to this end. For example, the KRAS5−6/8−14 spliced epitope candidate here identified has been validated in collaboration with Blankenstein et al. ([56]). Specific TCRs have been isolated from humanized ABabDII mice ([57]), cloned into expressing vectors and transduced into human PBMCs.

Row | Molecule | Recognition by PBMCs of pancreatic adenocarcinoma patients [1] | Transport efficiency into the ER lumen mediated by TAPs [2] | Binding to HLA-A*02:01 complex (result in words) (HLA-A*02:01 complex) | Recognition of the epitope by TCR-transduced human CD8+ T cells [3]
1 | CC(C)C[C@H](NC(=O)[C@@H](N)CCCCN)C(=O)N[C@H](C(=O)N[C@H](C(=O)N[C@H](C(=O)NCC(=O)N[C@@H](C)C(=O)N[C@H](C(=O)NCC(=O)N[C@H](C(=O)O)C(C)C)C(C)C)C(C)C)C(C)C)C(C)C [KRAS5−14 G12V] | recognized by PBMCs | – | – | –
2 | KLVVVAVGV [peptide #2] | – | not competing with the reference peptide | – | –
3 | YLVVVGAVGV [peptide #1] | – | transported by TAP as efficiently as the non-spliced epitope candidate | – | –
4 | [KL][VVGAVGV] [KRAS5−6/8−14 G12V] | – | efficiently transported by TAPs | efficiently bind | selectively recognized
